This note sets out measurements from patent US20250341522A1, “Treatment Strategies for Pancreatic Cancer Using Recombinant Acid Sphingomyelinase” (University of Cincinnati, priority 2024, published 2025).

The target in one assay is T1, ASM (Mus musculus, UniProt Q04519).
T1 construct: endogenous in cells; host or cells: ex vivo mouse splenocytes, Ly6G-sorted myeloid cells, J774 macrophages
T1 sequence (Q04519 45-627): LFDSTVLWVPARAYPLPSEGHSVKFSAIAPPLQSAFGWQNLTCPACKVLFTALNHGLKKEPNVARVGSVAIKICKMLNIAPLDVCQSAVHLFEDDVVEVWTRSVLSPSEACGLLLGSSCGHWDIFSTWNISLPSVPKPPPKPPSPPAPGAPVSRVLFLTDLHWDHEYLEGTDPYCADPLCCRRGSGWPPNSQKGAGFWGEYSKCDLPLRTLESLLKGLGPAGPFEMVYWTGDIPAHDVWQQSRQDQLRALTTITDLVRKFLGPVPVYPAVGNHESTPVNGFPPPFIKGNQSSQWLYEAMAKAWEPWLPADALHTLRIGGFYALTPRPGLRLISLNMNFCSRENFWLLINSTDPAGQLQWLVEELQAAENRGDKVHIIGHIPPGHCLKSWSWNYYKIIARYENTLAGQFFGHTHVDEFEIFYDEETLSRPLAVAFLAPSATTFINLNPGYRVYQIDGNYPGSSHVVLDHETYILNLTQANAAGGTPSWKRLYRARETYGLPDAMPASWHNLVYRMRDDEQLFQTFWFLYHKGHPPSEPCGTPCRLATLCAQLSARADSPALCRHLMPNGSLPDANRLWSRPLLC
The experiment in a line: Incubation of ex vivo splenocytes, Ly6G-sorted myeloid cells or J774 macrophages with polyamines: ASM activity and sphingomyelin. The assay is classed as cell-based, mice. The following applies: agmatine 5 μM, 8 hr. The method, then: FIG. 9A is a graph showing the concentration of polyamines in the blood plasma of wt or ASM-tr mice determined by ELISA. FIG. 9B is a graph showing the activity of ASM for splenocytes that were isolated from wt or ASM-tr mice and stimulated for 8 hr with 5 μM agmatine (Agm), 100 μM spermine (Sp), or 100 μM spermidine (Spd). FIG. 9C is a graph showing the concentrations of sphingomyelin for splenocytes that were isolated from wt or ASM-tr mice and stimulated for 8 hr with 5 μM agmatine (Agm), 100 μM spermine (Sp), or 100 μM spermidine (Spd). The activity of ASM and the concentrations of sphingomyelin were determined by an enzyme assay or ELISA. Mean±SD; n=6-8; **p<0.01, ***p<0.001 ANOVA.
An increase of Arg-1 and ADC expression may also increase polyamine concentrations. […]
FIG. 10 is a graph showing ASM activity (A) and levels of sphingomyelin (B), Arg-1 (C), and ADC (D) were determined in macrophages (J774 cell line) or in stable ASM-transfected J774 (with an approximately 3-fold overexpression of ASM) at baseline, after treatment with agmatine (Agm, 5 μM), spermine (Sp, 100 μM), or spermidine (Spd, 100 μM), supernatant (Sup) from KPC cells, and supernatant immunodepleted (id) of polyamines. ASM activity was measured by determining the consumption of [^14C]sphingomyelin, Sphingomyelin-, Arginase-1- and ADC-levels were quantified by ELISA. […]

In assay [1] the test system is Pan02 pancreas cancer cells. As to the kind of experiment: Orthotopic pancreatic cancer murine model (Pan02), tumor size 15 days after injection. Type of assay: in vivo. The following applies: wildtype mice, amitriptyline 10 mg/kg i.p. every other day, 15 days after tumor initiation, vs vehicle. The method, then: The wildtype mice were randomly divided into 2 groups treated with antidepressant (amitriptyline 10 mg/kg, i.p. injected every 2nd day) or vehicle, i.e. 0.9% NaCl. The size of the pancreas cancer was determined 15 days after tumor initiation.
FIG. 4 is a graph showing a growth of PDAC in murine models of orthotopic pancreatic ductal adenocarcinoma. Wildtype mice were injected orthotopically into the pancreas with […] Pan02 pancreas cancer cells and either left untreated or treated with amitriptyline at 10 mg/kg every other day via IP injection starting at day 4 after tumor injection. In addition, we injected acid sphingomyelinase-deficient littermates with Pan02 pancreas cancer cells orthotopically into the pancreas. Tumor size was determined 15 days after injection. Shown are the mean±SD of the tumor size from each n=4-5 mice per group; *p<0.05, ANOVA with Tukey post hoc test.
All animal experiments were approved by the University of Cincinnati Ethic Committee and the Institutional Animal Care and Use Committee. Eight-week-old, wild type male, C57BL/6J mice were purchased from Jackson Labs (000664, Jackson Labs, USA). Acid sphingomyelinase-deficient mice (Smpd1−/−) were bred and genotyped at the animal facility of the University of Cincinnati. […] The size of the pancreas cancer was determined in all groups 15 days after tumor initiation.

In assay [2] the test system is isolated immune cells from tumors in wt mice. As to the kind of experiment: Anti-CD3-mediated IL-2 and INFγ formation in isolated immune cells from tumor wt mice. The assay is classed as cell-based. The following applies: arginine added to isolated immune cells from tumors in wt mice. From the text: Further, it was confirmed that sphingomyelin caused upregulation of Arg-1 and ADC and the concomitant reduction of arginine concentrations results in immune inhibition. Confirmation was accomplished by the finding that anti-CD3-mediated IL-2 and INFγ-formation, as well as cytotoxicity toward KPC cells, is lower in splenocytes isolated from wt mice injected with PDAC than in splenocytes from ASM-tr mice (FIG. 8E).

A further assay relates to KPC-PDAC cells. The experiment in a line: Tumor development and survival of wildtype and ASM-transgenic mice after i.p. injection of KPC-PDAC cells, gemcitabine treatment (Example 4, FIG. 5). Type of assay: in vivo. The following applies: for response of tumors to treatment: i.p. KPC-PDAC cells. The method, then: FIG. 5 is a graph showing the survival of wildtype and ASM-transgenic mice after i.p. injection of 25,000 KPC cells. Treatment of ASM-transgenic (tr) mice with gemcitabine rescued 100% of the mice from tumor growth. n=12 each group.
An experiment was conducted to determine if acid sphingomyelinase overexpression prevents tumor growth. Based on the clinical data, the effects of ASM overexpression and tumor growth were evaluated.

In another assay the target is T2, SLC66A1 (Mus musculus, UniProt Q8C4N4).
T2 construct: SLC66A1 was immunoprecipitated from 40×10^6 splenocytes, after lysis in RIPA-buffer+aprotinin/leupeptin; endogenous in cells; host or cells: splenocytes (immunoprecipitate on protein A/G agarose)
T2 sequence (Q8C4N4 1-293): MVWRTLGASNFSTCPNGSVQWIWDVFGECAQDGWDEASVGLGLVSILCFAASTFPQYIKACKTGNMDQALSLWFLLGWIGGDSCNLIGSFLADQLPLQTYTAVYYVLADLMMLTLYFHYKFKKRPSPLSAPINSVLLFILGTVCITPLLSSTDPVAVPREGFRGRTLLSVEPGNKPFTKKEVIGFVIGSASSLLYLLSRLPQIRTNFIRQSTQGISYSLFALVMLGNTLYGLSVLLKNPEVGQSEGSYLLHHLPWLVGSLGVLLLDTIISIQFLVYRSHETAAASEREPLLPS
The experiment in a line: Binding of [14C]sphingomyelin to immunoprecipitated SLC66A1. The method, then:
FIG. 7A is a graph showing the binding of [^14C]sphingomyelin (SM), [^14C]ceramide (Cer), and [^14C]sphingosine (SPH) in the absence or presence of the VMLTLYFYY peptide.
(§1) The lysosomal arginine transporter SLC66A1 contains a VMLTLYFYY motif. A study was conducted to investigate whether SLC66A binds to sphingomyelin. […] Additionally, efflux of arginine was markedly higher in lysosomes of splenic myeloid cells isolated from wt tumors than in cells from control mice and absent in ASM-tr cells (FIG. 7B).
FIG. 7A is a graph showing SLC66A1 was immunoprecipitated from 40×10^6 splenocytes, after lysis in RIPA-buffer+aprotinin/leupeptin. Immunocomplexes were immobilized on protein A/G agarose, washed 3-times in RIPA buffer and twice in PBS+0.1% Triton X100, resuspended in the same buffer and binding of [^14C]sphingomyelin (SM), [^14C]ceramide (Cer), or [^14C]sphingosine (SPH) was measured in the absence or presence of the VMLTLYFYY peptide.

Assay [3] relates to lysosomal arginine transport. As to the kind of experiment: Efflux of arginine from isolated lysosomes of Ly6G-sorted splenocytes. Type of assay: biochemical, mice. The following applies: lysosomes of wt cells treated with sphingomyelin. The method, then:
FIG. 7B is a graph showing the results of isolated lysosomes from Ly6G-sorted splenocytes obtained from mice with or without PDAC being loaded with [^14C]arginine and the efflux of [3H]arginine being determined. Aliquots of the lysosomes were treated with sphingomyelin.
as §1
FIG. 7B is a graph showing isolated lysosomes from Ly6G-sorted splenocytes obtained from mice with or without PDAC were loaded with [^14C]arginine and the efflux of [3H]arginine was determined. Aliquots of the lysosomes were treated with sphingomyelin. Mean±SD; n=6-8; ***p<0.001 ANOVA.

On to `N=C(N)NCCCCN` [agmatine], for which, at ASM, the ASM activity entry is reported as “inhibited ASM activity” and the cellular sphingomyelin concentrations entry was “increased cellular sphingomyelin concentrations”. Take `CN(C)CCC=C1c2ccccc2CCc2ccccc21` [amitriptyline]: in assay [1], the “tumor growth (tumor size)” value is given as “increased tumor growth”. Take `N=C(N)NCCC[C@H](N)C(=O)O` [arginine]: the “CD3-mediated formation of IL-2 and INFγ” value in assay [2] is on record as “restored”. Regarding `Nc1ccn([C@@H]2O[C@H](CO)[C@@H](O)C2(F)F)c(=O)n1` [gemcitabine], the “response of tumors to treatment” value in the assay on KPC-PDAC cells (ASM-tr mice, low dose of gemcitabine) was “completely eradicate the tumors”; in the assay with KPC-PDAC cells (wt mice), “resistant”. Further, the “mice rescued from tumor growth” value with KPC-PDAC cells (ASM-transgenic mice, 25,000 KPC cells i.p., n=12) is 100%. For the molecule VMLTLYFYY [VMLTLYFYY peptide], the “binding of sphingomyelin to SLC66A1 in the presence of peptide” value with SLC66A1 (excess synthetic peptide) was “almost abrogated”. As for sphingomyelin, the “binding to SLC66A1” value at SLC66A1 (immunoprecipitation from splenocytes, [14C]sphingomyelin) is “direct and specific binding”. The “efflux of arginine from lysosomes” value in assay [3] was “strongly activated”.
